By EC50 is commonly meant the concentration giving half of the maximal effect.

Each structure is given as a SMILES string.

The target in this assay is GLP-1 Receptor (Homo sapiens (Human), UniProt P43220). The experiment in a line: GLP-1R agonist cAMP stimulation assay (HEK293/GLP1R/CRE-LUC cells). The class given is cell-based. The note with it: 30 min incubation, read-out: GLP1R cAMP Stimulation DR: EC50. The procedure: Activation of GLP-1 receptor is known to stimulate cyclic AMP (cAMP) production in cells which indicates primary coupling to the Gαs subunit of the G protein heterotrimeric complex.
Sequence of GLP-1 Receptor (P43220 24-463): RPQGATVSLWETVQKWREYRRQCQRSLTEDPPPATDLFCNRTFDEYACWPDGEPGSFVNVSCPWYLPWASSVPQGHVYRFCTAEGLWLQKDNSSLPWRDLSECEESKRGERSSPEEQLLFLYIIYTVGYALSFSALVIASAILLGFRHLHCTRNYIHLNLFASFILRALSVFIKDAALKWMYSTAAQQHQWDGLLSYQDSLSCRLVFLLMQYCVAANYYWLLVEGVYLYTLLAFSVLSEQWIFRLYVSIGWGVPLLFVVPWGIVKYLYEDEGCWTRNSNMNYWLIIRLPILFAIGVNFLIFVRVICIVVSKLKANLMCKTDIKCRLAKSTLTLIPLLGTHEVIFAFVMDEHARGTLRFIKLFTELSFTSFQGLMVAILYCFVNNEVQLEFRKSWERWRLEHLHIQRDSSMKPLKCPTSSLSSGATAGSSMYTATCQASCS
To optimize functional activity directed toward Gαs coupling, a HEK293/CRELuc cell line developed by HDB stably expressing the GLP-1 Receptor was used. 200× concentration of compound working solutions were prepared (Agilent Technologies Bravo) with 1/2 log serial dilution in 384-well Echo LDV plate (Labcyte, Cat #LP-0200). 50 nL/well 200× concentration of compound working solutions were moved to 384-well white low volume plate (Greiner, Cat #784075) using Labcyte ECHO550. 1×10^5 cells/mL HEK293/GLP1R/CRE-LUC (HD Biosciences) cell suspensions prepared with assay buffer [DPBS containing 0.5 mM IBMX (Sigma,Cat #I5879) and 0.1% BSA (GENVIEW, Cat #FA016-100 g)], 10 uL cell suspensions were added to each well of previous generated assay plate which already contains 50 nl compound at 200× concentration using ThermoFisher Multidrop Combi (1000cells/well). Seal the plate and incubate at 37° C. with 5% CO2 for 30 min.
After incubation the CAMP assay signal was generated using cAMP dynamic 2 Kit (Cisbio). 5 μL cAMP-d2 working solution was added to each well, followed with 5 μL Anti-cAMP antibody-cryptate working solution added to each well using ThermoFisher Multidrop Combi. Incubate at room temperature for 1 hour protected from light. Read the fluorescence at 665 and 615 nm with Reader PerkinElmer En Vision.
In the case of `O=C(O)c1ccc2nc(CN3CCC(c4cccc5c4OC[C@@H](c4ccc(Cl)cc4F)O5)CC3)n(C[C@@H]3CCO3)c2n1` [Compound 104b, 2-((4-((R)-2-(4-chloro-2-fluorophenyl)-2,3-dihydrobenzo[b][1,4]dioxin-5-yl)piperidin-1-yl)methyl)-3-(((S)-oxetan-2-yl)methyl)-3H-imidazo[4,5-b]pyridine-5-carboxylic acid], the concentration giving a half-maximal response (EC50) lay in the range of 0.2 to 20 nM.

For the compound `O=C(O)c1ccc2nc(CN3CCC(c4cccc5c4OC[C@H](c4ccc(Cl)cc4F)O5)CC3)n(C[C@@H]3CCO3)c2n1` [Compound 104c, 2-((4-((S)-2-(4-chloro-2-fluorophenyl)-2,3-dihydrobenzo[b][1,4]dioxin-5-yl)piperidin-1-yl)methyl)-3-(((S)-oxetan-2-yl)methyl)-3H-imidazo[4,5-b]pyridine-5-carboxylic acid], the 50% effective concentration (EC50) lay in the range of 20 to 200 nM.

For `O=C(O)c1ccc2nc(CN3CCC(c4cccc5c4OCC(c4ccccc4F)C5)CC3)n(C[C@@H]3CCO3)c2n1` (stereo partly drawn) [Compound 122a, 2-((4-(3-(2-fluorophenyl) Chroman-8-yl)piperidin-1-yl)methyl)-3-(((S)-oxetan-2-yl)methyl)-3H-imidazo[4,5-b]pyridine-5-carboxylic acid], the EC50 is 20 to 200 nM.

On to `O=C(O)c1ccc2nc(CN3CCC(c4cccc5c4OCC(c4ccc(Cl)cc4)O5)CC3)n(C[C@@H]3CCO3)c2n1` (stereo partly drawn) [Compound 111a, 2-((4-(2-(4-chlorophenyl)-2,3-dihydrobenzo[b][1,4]dioxin-5-yl)piperidin-1-yl)methyl)-3-(((S)-oxetan-2-yl)methyl)-3H-imidazo[4,5-b]pyridine-5-carboxylic acid], for which the 50% effective concentration (EC50) was at most 0.2 nM.

Consider `O=C(O)c1ccc2nc(CN3CCC(c4cccc5c4OC[C@@H](c4ccc(Cl)cc4)O5)CC3)n(C[C@@H]3CCO3)c2n1` [Compound 111b, 2-((4-((R)-2-(4-chlorophenyl)-2,3-dihydrobenzo[b][1,4]dioxin-5-yl)piperidin-1-yl)methyl)-3-((S)-oxetan-2-ylmethyl)-3H-imidazo[4,5-b]pyridine-5-carboxylic acid], for which the EC50 was at most 0.2 nM.

Take `O=C(O)c1ccc2nc(CN3CCC(c4cccc5c4OCC(c4cccc(Cl)c4)O5)CC3)n(C[C@@H]3CCO3)c2n1` (stereo partly drawn) [Compound 112a, 2-((4-(2-(3-chlorophenyl)-2,3-dihydrobenzo[b][1,4]dioxin-5-yl)piperidin-1-yl)methyl)-3-(((S)-oxetan-2-yl)methyl)-3H-imidazo[4,5-b]pyridine-5-carboxylic acid]: the concentration giving a half-maximal response (EC50) fell in the range of 0.2 to 20 nM.

Take `O=C(O)c1ccc2nc(CN3CCC(c4cccc5c4OCC(c4ccccc4F)O5)CC3)n(C[C@@H]3CCO3)c2n1` (stereo partly drawn) [Compound 109a, 2-((4-(2-(2-fluorophenyl)-2,3-dihydrobenzo[b][1,4]dioxin-5-yl)piperidin-1-yl)methyl)-3-(((S)-oxetan-2-yl)methyl)-3H-imidazo[4,5-b]pyridine-5-carboxylic acid]: the EC50 lay in the range of 20 to 200 nM.

On to `O=C(O)c1ccc2nc(CN3CCC(c4cccc5c4OC(c4ccc(Cl)cc4F)CO5)CC3)n(C[C@@H]3CCO3)c2n1` (stereo partly drawn) [Compound 130a, 2-((4-(3-(4-chloro-2-fluorophenyl)-2,3-dihydrobenzo[b][1,4]dioxin-5-yl)piperidin-1-yl)methyl)-3-(((S)-oxetan-2-yl)methyl)-3H-imidazo[4,5-b]pyridine-5-carboxylic acid], for which the EC50 was at most 0.2 nM.

For the compound `O=C(O)c1ccc2nc(CN3CCC(c4cccc5c4OCC(c4ccc(Cl)c(F)c4)O5)CC3)n(C[C@@H]3CCO3)c2n1` (stereo partly drawn) [Compound 113a, 2-((4-(2-(4-chloro-3-fluorophenyl)-2,3-dihydrobenzo[b][1,4]dioxin-5-yl)piperidin-1-yl)methyl)-3-(((S)-oxetan-2-yl)methyl)-3H-imidazo[4,5-b]pyridine-5-carboxylic acid], the concentration for a half-maximal effect (EC50) lay in the range of 0.2 to 20 nM.

In the case of `CC1(c2ccc(Cl)cc2F)COc2c(cccc2C2CCN(Cc3nc4ccc(C(=O)O)nc4n3C[C@@H]3CCO3)CC2)O1` (stereo partly drawn) [Compound 127a, 2-((4-(2-(4-chloro-2-fluorophenyl)-2-methyl-2,3-dihydrobenzo[b][1,4]dioxin-5-yl)piperidin-1-yl)methyl)-3-((S)-oxetan-2-ylmethyl)-3H-imidazo[4,5-b]pyridine-5-carboxylic acid], the half-maximal effective concentration (EC50) was in the range of 0.2 to 20 nM.

`O=C(O)c1ccc2nc(CN3CCC(c4cccc5c4OC(c4ccc(Cl)cc4F)CO5)CC3)n(C[C@@H]3CCO3)c2n1` (single isomer, unassigned) [Compound 130b]: the EC50 is at most 0.2 nM.

Turning to `O=C(O)c1ccc2nc(CN3CCC(c4cccc5c4OCC(c4ccccc4F)N5)CC3)n(C[C@@H]3CCO3)c2n1` (stereo partly drawn) [Compound 125a, 2-((4-(3-(2-fluorophenyl)-3,4-dihydro-2H-benzo[b][1,4]oxazin-8-yl)piperidin-1-yl)methyl)-3-(((S)-oxetan-2-yl)methyl)-3H-imidazo[4,5-b]pyridine-5-carboxylic acid], the half-maximal effective concentration (EC50) was 20 to 200 nM.

Take `O=C(O)c1ccc2nc(CN3CCN(c4cccc5c4CCC(c4ccc(Cl)cc4F)O5)CC3)n(C[C@@H]3CCO3)c2n1` (stereo partly drawn) [Compound 123a, 2-((4-(2-(4-Chloro-2-fluorophenyl)chroman-5-yl)piperazin-1-yl)methyl)-3-((S)oxetan-2-ylmethyl)-3H-imidazo[4,5-b]pyridine-5-carboxylic acid]: the concentration giving a half-maximal response (EC50) is 20 to 200 nM.

Consider `O=C(O)c1ccc2nc(CN3CCC(c4cccc5c4OCC(c4ccc(Cl)cc4F)N5)CC3)n(C[C@@H]3CCO3)c2n1` (stereo partly drawn) [Compound 124a, 2-((4-(3-(4-chloro-2-fluorophenyl)-3,4-dihydro-2H-benzo[b][1,4]oxazin-8-yl)piperidin-1-yl)methyl)-3-(((S)-oxetan-2-yl)methyl)-3H-imidazo[4,5-b]pyridine-5-carboxylic acid], for which the EC50 is 0.2 to 20 nM.

Consider `O=C(O)c1ccc2nc(Cc3ccc(-c4cccc5c4OCC(c4ccc(Cl)cc4F)O5)cc3)n(C[C@@H]3CCO3)c2n1` (stereo in doubt) [Compound 107a, 2-[[4-[2-(4-chloro-2-fluoro-phenyl)-2,3-dihydro-1,4-benzodioxin-5-yl]phenyl]methyl]-3-(oxetan-2-ylmethyl)imidazo[4,5-b]pyridine-5-carboxylic acid], for which the EC50 was in the range of 20 to 200 nM.

In the case of `O=C(O)c1ccc2nc(CN3CCC(c4cccc5c4OC[C@H](c4ccc(Cl)cc4F)O5)CC3)n(C[C@@H]3CCO3)c2c1` [Compound 120c, 2-((4-((S)-2-(4-chloro-2-fluorophenyl)-2,3-dihydrobenzo[b][1,4]dioxin-5-yl)piperidin-1-yl)methyl)-1-((S)-oxetan-2-ylmethyl)-1H-benzo[d]imidazole-6-carboxylic acid], the EC50 lay within 20 to 200 nM.

For `N#Cc1ccc([C@@H]2COc3c(cccc3C3CCN(Cc4nc5ccc(C(=O)O)cc5n4C[C@@H]4CCO4)CC3)O2)cc1` [Compound 129a, 2-((4-((R)-2-(4-Cyanophenyl)-2,3-dihydrobenzo[b][1,4]dioxin-5-yl)piperidin-1-yl)methyl)-1-(((S)-oxetan-2-yl)methyl)-1H-benzo[d]imidazole-6-carboxylic acid], the concentration giving a half-maximal response (EC50) is at most 0.2 nM.

Take `O=C(O)c1ccc2nc(CN3CCC(c4cccc5c4OCC(c4ccc(F)cc4)O5)CC3)n(C[C@@H]3CCO3)c2n1` (stereo partly drawn) [Compound 117a, 2-((4-(2-(4-fluorophenyl)-2,3-dihydrobenzo[b][1,4]dioxin-5-yl)piperidin-1-yl)methyl)-3-(((S)-oxetan-2-yl)methyl)-3H-imidazo[4,5-b]pyridine-5-carboxylic acid]: the EC50 is 0.2 to 20 nM.

Consider `O=C(O)c1ccc2nc(CN3CCC(c4cccc5c4OC[C@@H](c4ccc(Cl)cc4F)O5)CC3)n(C[C@@H]3CCO3)c2c1` [Compound 120b, 2-((4-((R)-2-(4-chloro-2-fluorophenyl)-2,3-dihydrobenzo[b][1,4]dioxin-5-yl)piperidin-1-yl)methyl)-1-((S)-oxetan-2-ylmethyl)-1H-benzo[d]imidazole-6-carboxylic acid], for which the concentration giving a half-maximal response (EC50) lay within 0.2 to 20 nM.

With `O=C(O)c1ccc2nc(CN3CCN(c4cccc5c4OCC(c4ccc(Cl)cc4F)O5)CC3)n(C[C@@H]3CCO3)c2n1` (stereo partly drawn) [Compound 108a, 2-((4-(2-(4-chloro-2-fluorophenyl)-2,3-dihydrobenzo[b][1,4]dioxin-5-yl)piperazin-1-yl)methyl)-3-((S)-oxetan-2-ylmethyl)-3H-imidazo[4,5-b]pyridine-5-carboxylic acid], the concentration giving a half-maximal response (EC50) lay within 0.2 to 20 nM.

As to `N#Cc1ccc(C2COc3c(cccc3C3CCN(Cc4nc5ccc(C(=O)O)nc5n4C[C@@H]4CCO4)CC3)O2)cc1` (stereo partly drawn) [Compound 118a, 2-((4-(2-(4-cyanophenyl)-2,3-dihydrobenzo[b][1,4]dioxin-5-yl)piperidin-1-yl)methyl)-3-(((S)-oxetan-2-yl)methyl)-3H-imidazo[4,5-b]pyridine-5-carboxylic acid], the concentration for a half-maximal effect (EC50) was at most 0.2 nM.

With `Cc1ccc(C2COc3c(cccc3C3CCN(Cc4nc5ccc(C(=O)O)nc5n4C[C@@H]4CCO4)CC3)O2)cc1` (stereo partly drawn) [Compound 116a, 3-(((S)-oxetan-2-yl)methyl)-2-((4-(2-(p-tolyl)-2,3-dihydrobenzo[b][1,4]dioxin-5-yl)piperidin-1-yl)methyl)-3H-imidazo[4,5-b]pyridine-5-carboxylic acid], the half-maximal effective concentration (EC50) is at most 0.2 nM.

The values are drawn from patent US20250214999A1, “HETEROCYCLIC GLP-1 AGONISTS” (Gasherbrum Bio, Inc., priority 2020, published 2025).
